# Reference: patent publication US7803783B2, “Use of WNT inhibitors to augment therapeutic index of chemotherapy” (The Board of Trustees of the Leland Stanford Junior …, priority 2002, dated 2010)
# Experiments:
# HSCs = assay: Transplantation of Wnt3A-treated HSCs into lethally irradiated recipient mice; format: in vivo, mouse
# Procedure: To test whether the cells treated with purified Wnt3A underwent self-renewal functionally, purified HSCs were plated as 1 cell or as 10 cells, treated with Wnt3A and each well containing proliferating cells transplanted individually into lethally irradiated recipient mice along with 300,000 Sca-1^− Bone Marrow cells (A). […] Since the empirically observed frequency of reconstitution of resting HSCs is ˜10% and of cycling HSCs ˜2%, the observed frequency of reconstitution of 100% for 1 plated cells is consistent with Wnt3A inducing a 10- to 50-fold increase in HSC activity, a range similar to that seen with BCL-2 transgenic HSCs.
# In vivo analysis of HSC function.
# [1] = tested on: LEF-1/TCF reporter (TOP-dGFP); assay: Lentiviral LEF-1/TCF reporter assay in HSCs in vitro; format: cell-based, mouse; conditions: HSCs stimulated with Wnt3a about 100 ng/ml
# human bone marrow HSCs = assay: Proliferation of human bone marrow HSCs with soluble Wnt3a; format: cell-based; conditions: absence of any other growth factor
# [2] = tested on: wild type mouse bone marrow HSCs; assay: In vitro HSC proliferation assay with purified Wnt3A; format: cell-based
# Procedure: FIGS. 5A-5D. Wild Type HSCs proliferate to purified Wnt3A. Purified wild type mouse bone marrow HSCs were sorted by FACS and plated at 5 or 10 cells/well into 60 well Terasaki plates. Cells were incubated in X-vivo 15 (Bio Whittaker), 10% FBS, 5×10^−5M 2-Mercaptoethanol, and 1×10^−4M random methylated beta-cyclodextrin (CTD, Inc.) in the presence of either purified Wnt3A (at approx. 100 ng/ml) plus SLF (10 ng/ml) or SLF (10 ng/ml) alone, as a control. (SLF dose required ranged from 7.5 ng/ml-100 ng/ml depending on mouse strain used). Cell growth was monitored over a period of 7-9 days in culture, and is shown as total cell response (A) and the average frequency of responding wells (B) representative of over 9 independent experiments. To determine phenotypic characteristics, cells were plated in bulk (3500 cells) in 96 well plates and incubated in the presence of purified or unpurified Wnt3A.
# Purified Wnt protein can regulate HSC self-renewal in the same manner as β-catenin in BCL-2 transgenic HSCs. To ensure that this response was not dependent on BCL-2 over-expression, we specifically tested whether wild type HSCs respond in a similar manner to purified Wnt3A as well. Over a period of days, HSCs plated at 1-20 cells per well, responded extremely robustly to Wnt3A in contrast to control conditions (e.g. 184 cells versus 0 when plated at 5 cells/well) (FIG. 5). The average frequency of cells that responded to Wnt3A over 3 independent experiments was 17-fold more than the proliferation to control conditions (limiting dose of SLF) when plated at 10 cells/well. […] Furthermore, the phenotypic characteristics of HSCs treated with purified or unpurified Wnt3A were dramatically different. […] Furthermore, a significant fraction of the lineage negative population expressed c-Kit and Sca-1 consistent with a HSC phenotype (D).
# In vitro HSC proliferation assays. Freshly purified or virally transduced HSCs were plated at 1 to 20 cells per well in Terasaki plates. Cells were sorted into wells containing serum-free medium (X-vivo15, BioWhittaker) supplemented with 5×10^−5 M 2-mercaptoethanol and the indicated growth factors. Proliferation was monitored by counting the number of cells in each well at defined intervals. For longer-term cultures, transduced HSCs were plated in 96-well plates in the absence or presence of SLF (1 ng ml^−1), and the number of cells generated was monitored by cell counting at defined intervals. For inhibition of growth by CRD or axin, cells were cultured in the presence of mitogenic factors (SLF (30 ng ml^−1), Flt-3L (30 ng ml^−1), interleukin-6 (10 ng ml^−1)).
substance,measurement,setting,value
Wnt3a,frequency of reconstitution,HSCs; 1 plated cell treated with Wnt3A,100%
same,reconstitution efficiency,HSCs; wells plated with 10 cells or 5 cells,100%
same,TOP-dGFP reporter activity (GFP expression),[1],significant reporter activity
same,proliferation of highly purified human bone marrow HSCs,human bone marrow HSCs,induces proliferation
same,average frequency of cells that responded relative to control conditions,"[2]; 10 cells/well, 3 independent experiments, control limiting dose of SLF",17 fold
same,lineage marker phenotype of treated HSCs,[2]; after 7 days in culture,negative for lineage markers
same,total cell response,"[2]; plated at 5 cells/well, control 0",184 cells
same,numbers of progeny generated by singly plated HSCs compared with control conditions,"[2]; singly plated HSCs, presence of Wnt3a",six-fold
